According to US12012639B2, “Processes for isolation and recovery of C5 sugars” (University of Louisville Research Foundation, Inc., priority 2017, dated 2024):

Experiments:
solubility in water = type: physicochemical
[1] = solubility in ethyl acetate; type: physicochemical; details: at 25° C.

solubility of PBA in water (solubility in water; at 25° C.) | solubility in H2O (in words) (solubility in water; H2O) | volume of ethyl acetate that dissolves 1 gram [1] | SMILES
2.5 g PBA per 100 g H2O |  |  | OB(O)c1ccccc1 [PBA, phenyl boronic acid, reference compound]
 | extremely insoluble | 5 mL | c1ccc(B2OCC3OC4OB(c5ccccc5)OC4C3O2)cc1 (stereo not drawn) [XDE, xylose phenylboronic diester]
